Results taken from US12433901B2, “Compounds and methods for prevention and treatment of coronavirus infections” (ARJIL BIOTECH HOLDING COMPANY LIMITED, priority 2020, dated 2025).
“And” between values parts separate entries of the source, which are not always exact repeats. Equal values may be shown once.

Molecular target: SARS-CoV-2 3CLpro (Severe acute respiratory syndrome coronavirus 2, UniProt P0DTD1)
Test: ED-FRET protease assay with SARS-CoV-2 3CLpro (DABCYL-[…]-EDANS IQF peptide substrate)
Type: biochemical
Details: for inhibitory effect on peptide-cleaving activity of SARS-CoV-2 3CLpro (in words): compound 20 μM, FIG. 1; for IC50: IC50, relative 3CLpro activity
[1] = 0.125 μM SARS-CoV-2 3CLpro and 1.25 μM IQF peptide substrate (0.125p/1.25FP)

SMILES | inhibitory effect on peptide-cleaving activity of SARS-CoV-2 3CLpro (in words) | IC50 [1] [µM] | IC50 (0.25 μM SARS-CoV-2 3CLpro and 2.5 μM IQF peptide substrate) [µM] | IC50 (0.5 μM SARS-CoV-2 3CLpro and 5 μM IQF peptide substrate (0.5p/5FP)) | inhibition at 20 µM (read-out: SARS-CoV-2 3CLpro inhibition) [%]
C=C(CC[C@@H](C)[C@H]1CC[C@H]2C3=C(C(=O)C[C@]12C)[C@@]1(C)CC[C@@H](O)[C@](C)(O)[C@@H]1C[C@@H]3O)[C@@H](C)C(=O)O (stereo in doubt) [AR101 DS1] | inhibitory effect |  |  |  | 
C=C1C(=O)O[C@H]2/C=C(\C)CC3C=C(CC/C=C(\C)CC[C@H]12)C(=O)O3 (stereo partly drawn) [AR100 DS1] | inhibitory effect | 21.3 |  |  | 
C=C(CC[C@@H](C(=O)O)[C@H]1CC[C@@]2(C)C3=CC[C@H]4C(C)(C)[C@@H](O)CC[C@]4(C)C3=CC[C@]12C)C(C)C [AR101 DS4] | inhibitory effect |  |  |  | 
C=C(CC[C@@H](C(=O)O)[C@H]1C[C@H](OC(C)=O)[C@@]2(C)C3=C(CC[C@]12C)[C@@]1(C)CC[C@H](O)C(C)(C)[C@@H]1CC3)C(C)C [AR101 DS3] | utmost inhibitory effect | 11.7 | 11.1 | 14.6 µM and 11.1 µM | ~50
